Experimental data as given in patent US20080051379A1, “Compositions and Methods for the Treatment of Peripheral B-Cell Neoplasms” (Trustees of Boston University, priority 2004, published 2008).

What was measured:
[1] = tested on: peripheral blood T cells; experiment: Hoechst 33342 apoptosis assay, peripheral blood T cells; format: cell-based, human; settings: 10 μM rolipram
Method: Magnetic bead purified peripheral blood T cells or leukemic cells from patients with B-CLL or Sezary syndrome were cultured in media alone or with a dose titration of hydrocortisone (solid line), followed by assessment for apoptosis by Hoechst 33342 FACS analysis at 48 hours. Using the same experimental conditions, the effect of addition of 10 μM rolipram (thick dashed line) or 10 μM rolipram and 40 μM forskolin (dotted line) was also assessed. The SEM of triplicate samples is shown; where not visible, the SEM was less than 1.0%.
CCRF-CEM cells were obtained from ATCC^27. Leukemic or normal mononuclear cells were obtained by centrifugation over Histopaque 1077 (Sigma Chemical Company, St. Louis, Mo.). For purification of T cells, whole mononuclear cells from normal subjects were incubated with magnetic beads coated with appropriate antibodies, then positively purified using a magnet (Miltenyi). […]
Hoechst 33342 and DiOC6(3) apoptosis assays were performed as previously described^22,28. […] The absorbance (O.D.) of the formazan product was determined at 492 nm using a plate reader (Titertek Multiscan Plus, Labsystems). Percent cell viability was calculated as follows: (O.D. control sample−O.D. blank)/(O.D. test sample−O.D. blank)×100. […]

[2] = tested on: PDE4; settings: cited from earlier work
[3] = tested on: cAMP levels in B-CLL cells; experiment: cAMP RIA, B-CLL cells; format: cell-based, human; settings: 10 μM rolipram for 30 minutes; six B-CLL patients; p<0.04
Method: (§1) Leukemic cells from six B-CLL patients or CCRF-CEM cells were incubated for 30 minutes with media alone (CT), 10 μM rolipram (Roli), 10 μM forskolin (Fsk), 1 μM hydrocortisone (HC), or the same concentration of hydrocortisone combined with rolipram (Roli/HC) or forskolin (Fsk/HC). Lysates of the cells were then assayed for cAMP using a RIA. The cAMP level obtained from each treated B-CLL sample was normalized to that observed in the untreated leukemic cells. The CCRF-CEM data shown are representative of three experiments performed.
(§2) 500,000 B-CLL or CCRF-CEM cells were incubated for 30 minutes in one mL media alone or with the addition of drugs. Cells were centrifuged and lysed in 80% ethanol. After vortexing and incubation on ice for 10 minutes, cellular debris was removed by re-centrifugation. The supernatant was dried in a Speedivac and the sample brought up in 250 μL of sample buffer as provided by the makers of a cAMP RIA kit (Amersham). 100 μL of this sample was used for each cAMP assay. The RIA kit was used according to the manufacturer's instructions.

[4] = tested on: cAMP levels in CCRF-CEM cells; experiment: cAMP RIA, CCRF-CEM cells; format: cell-based, human; settings: 30 minutes, 10 μM rolipram, 10 μM forskolin, 1 μM hydrocortisone, three experiments
Method: as §1, §2

Structure (SMILES): COc1ccc(C2CNC(=O)C2)cc1OC1CCCC1 (centres unmarked) [rolipram, 4-(3-cyclopentyloxy-4-methoxyphenyl)-2-pyrrolidone]
- augmentation of the apoptotic effect of 1 μM hydrocortisone on T cells [1]: failed to augment
- induction of apoptosis in peripheral blood T cells [1]: failed to induce apoptosis
- cAMP levels above that observed in untreated cells [3]: 2.5±0.7 fold
- effect on cAMP levels [4]: no effect
